Data taken from ChEMBL document CHEMBL1155521, “Synthesis and antibacterial activity of novel 4''-O-arylalkylcarbamoyl and 4''-O-((arylalkylamino)-4-oxo-butyl)carbamoyl clarithromycin derivatives” (2010).
Values after ≈ are worked out from the molar mass of the structure shown.

How the values were obtained:
Type in all cases: functional
[1] = system: Streptococcus pneumoniae; assay: Antibacterial activity against erythromycin-resistant Streptococcus pneumoniae AB1-1 expressing erm and mef gene by broth microdilution method
[2] = system: Streptococcus pneumoniae; assay: Antibacterial activity against erythromycin-resistant Streptococcus pneumoniae B1 expressing erm gene by broth microdilution method
[3] = system: Streptococcus pneumoniae; assay: Antibacterial activity against erythromycin-resistant Streptococcus pneumoniae A22072 expressing mef gene by broth microdilution method
[4] = system: Streptococcus pneumoniae; assay: Antibacterial activity against erythromycin-susceptible Streptococcus pneumoniae ATCC 49619 by broth microdilution method

**Q.** CC[C@H]1OC(=O)[C@H](C)[C@@H](O[C@H]2C[C@@](C)(OC)[C@@H](OC(=O)NCc3ccccc3)[C@H](C)O2)[C@H](C)[C@@H](O[C@@H]2O[C@H](C)C[C@H](N(C)C)[C@H]2O)[C@](C)(OC)C[C@@H](C)C(=O)[C@H](C)[C@@H](O)[C@]1(C)O was tested. Which MIC [1] did it give?
**A.** 8 µg/mL (≈ 9.08 µM)

**Q.** What about the MIC [2] of the same molecule?
**A.** 4 µg/mL (≈ 4.54 µM)

**Q.** And the MIC [3]?
**A.** 0.25 µg/mL (≈ 0.284 µM)

**Q.** And the MIC [4]?
**A.** 0.25 µg/mL (≈ 0.284 µM)

**Q.** What does the source list for CC[C@H]1OC(=O)[C@H](C)[C@@H](O[C@H]2C[C@@](C)(OC)[C@@H](OC(=O)NCc3ccc(F)cc3)[C@H](C)O2)[C@H](C)[C@@H](O[C@@H]2O[C@H](C)C[C@H](N(C)C)[C@H]2O)[C@](C)(OC)C[C@@H](C)C(=O)[C@H](C)[C@@H](O)[C@]1(C)O?
**A.** MIC [1]: 8 µg/mL (≈ 8.9 µM); MIC [2]: 4 µg/mL (≈ 4.45 µM); MIC [3]: 0.5 µg/mL (≈ 0.556 µM); MIC [4]: 0.06 µg/mL (≈ 0.0667 µM)

**Q.** Which MIC [1] does the source give for CC[C@H]1OC(=O)[C@H](C)[C@@H](O[C@H]2C[C@@](C)(OC)[C@@H](O)[C@H](C)O2)[C@H](C)[C@@H](O[C@@H]2O[C@H](C)C[C@H](N(C)C)[C@H]2O)[C@](C)(O)C[C@@H](C)C(=O)[C@H](C)[C@@H](O)[C@]1(C)O [ERYTHROMYCIN] here?
**A.** 256 µg/mL (≈ 349 µM)

**Q.** What about the MIC [2] of the same molecule?
**A.** 128 µg/mL (≈ 174 µM)

**Q.** And the MIC [3]?
**A.** 8 µg/mL (≈ 10.9 µM)

**Q.** What about the MIC [4] of the same molecule?
**A.** 0.03 µg/mL (≈ 0.0409 µM)

**Q.** How did the MIC [1] turn out when CC[C@H]1OC(=O)[C@H](C)[C@@H](O[C@H]2C[C@@](C)(OC)[C@@H](OC(=O)NCCc3ccccc3)[C@H](C)O2)[C@H](C)[C@@H](O[C@@H]2O[C@H](C)C[C@H](N(C)C)[C@H]2O)[C@](C)(OC)C[C@@H](C)C(=O)[C@H](C)[C@@H](O)[C@]1(C)O was run?
**A.** 32 µg/mL (≈ 35.7 µM)

**Q.** What about the MIC [2] of the same molecule?
**A.** 16 µg/mL (≈ 17.9 µM)

**Q.** What about the MIC [3] of the same molecule?
**A.** 0.5 µg/mL (≈ 0.559 µM)

**Q.** What about the MIC [4] of the same molecule?
**A.** 0.06 µg/mL (≈ 0.067 µM)

**Q.** Which MIC [1] does the source give for CC[C@H]1OC(=O)[C@H](C)[C@@H](O[C@H]2C[C@@](C)(OC)[C@@H](OC(=O)NCc3ccc(OC)cc3)[C@H](C)O2)[C@H](C)[C@@H](O[C@@H]2O[C@H](C)C[C@H](N(C)C)[C@H]2O)[C@](C)(OC)C[C@@H](C)C(=O)[C@H](C)[C@@H](O)[C@]1(C)O here?
**A.** 32 µg/mL (≈ 35.1 µM)

**Q.** What about the MIC [2] of the same molecule?
**A.** 16 µg/mL (≈ 17.6 µM)

**Q.** What about the MIC [3] of the same molecule?
**A.** 0.25 µg/mL (≈ 0.274 µM)

**Q.** And the MIC [4]?
**A.** 0.03 µg/mL (≈ 0.0329 µM)

**Q.** Which MIC [1] does the source give for CC[C@H]1OC(=O)[C@H](C)[C@@H](O[C@H]2C[C@@](C)(OC)[C@@H](OC(=O)NCCCC(=O)NCCc3ccccc3Cl)[C@H](C)O2)[C@H](C)[C@@H](O[C@@H]2O[C@H](C)C[C@H](N(C)C)[C@H]2O)[C@](C)(OC)C[C@@H](C)C(=O)[C@H](C)[C@@H](O)[C@]1(C)O here?
**A.** 32 µg/mL (≈ 31.5 µM)

**Q.** What about the MIC [2] of the same molecule?
**A.** 32 µg/mL (≈ 31.5 µM)

**Q.** What about the MIC [3] of the same molecule?
**A.** 1 µg/mL (≈ 0.986 µM)

**Q.** And the MIC [4]?
**A.** 0.03 µg/mL (≈ 0.0296 µM)

**Q.** What does the source list for CC[C@H]1OC(=O)[C@H](C)[C@@H](O[C@H]2C[C@@](C)(OC)[C@@H](OC(=O)NCCCC(=O)NCc3ccc(OC)cc3)[C@H](C)O2)[C@H](C)[C@@H](O[C@@H]2O[C@H](C)C[C@H](N(C)C)[C@H]2O)[C@](C)(OC)C[C@@H](C)C(=O)[C@H](C)[C@@H](O)[C@]1(C)O?
**A.** MIC [1]: 1 µg/mL (≈ 1 µM); MIC [2]: 0.06 µg/mL (≈ 0.0602 µM); MIC [3]: 0.25 µg/mL (≈ 0.251 µM); MIC [4]: 0.03 µg/mL (≈ 0.0301 µM)

**Q.** With CC[C@H]1OC(=O)[C@H](C)[C@@H](O[C@H]2C[C@@](C)(OC)[C@@H](OC(=O)NCCCC(=O)NCCc3ccc(O)cc3)[C@H](C)O2)[C@H](C)[C@@H](O[C@@H]2O[C@H](C)C[C@H](N(C)C)[C@H]2O)[C@](C)(OC)C[C@@H](C)C(=O)[C@H](C)[C@@H](O)[C@]1(C)O as the molecule, how does the MIC [1] read?
**A.** 1 µg/mL (≈ 1 µM)

**Q.** What about the MIC [2] of the same molecule?
**A.** 0.25 µg/mL (≈ 0.251 µM)

**Q.** And the MIC [3]?
**A.** 0.5 µg/mL (≈ 0.502 µM)

**Q.** And the MIC [4]?
**A.** 0.03 µg/mL (≈ 0.0301 µM)

**Q.** Which results are given for CC[C@H]1OC(=O)[C@H](C)[C@@H](O[C@H]2C[C@@](C)(OC)[C@@H](O)[C@H](C)O2)[C@H](C)[C@@H](O[C@@H]2O[C@H](C)C[C@H](N(C)C)[C@H]2O)[C@](C)(OC)C[C@@H](C)C(=O)[C@H](C)[C@@H](O)[C@]1(C)O [CLARITHROMYCIN]?
**A.** MIC [1]: 128 µg/mL (≈ 171 µM); MIC [2]: 64 µg/mL (≈ 85.6 µM); MIC [3]: 4 µg/mL (≈ 5.35 µM); MIC [4]: 0.03 µg/mL (≈ 0.0401 µM)

**Q.** CC[C@H]1OC(=O)[C@H](C)[C@@H](O[C@H]2C[C@@](C)(OC)[C@@H](OC(=O)NCCCC(=O)NCc3ccccc3)[C@H](C)O2)[C@H](C)[C@@H](O[C@@H]2O[C@H](C)C[C@H](N(C)C)[C@H]2O)[C@](C)(OC)C[C@@H](C)C(=O)[C@H](C)[C@@H](O)[C@]1(C)O was tested. Which MIC [1] did it give?
**A.** 0.25 µg/mL (≈ 0.259 µM)

**Q.** What about the MIC [2] of the same molecule?
**A.** 2 µg/mL (≈ 2.07 µM)

**Q.** And the MIC [3]?
**A.** 0.5 µg/mL (≈ 0.517 µM)

**Q.** And the MIC [4]?
**A.** 0.03 µg/mL (≈ 0.031 µM)

**Q.** With CC[C@H]1OC(=O)[C@H](C)[C@@H](O[C@H]2C[C@@](C)(OC)[C@@H](OC(=O)NCCCC(=O)NCc3ccc(F)cc3)[C@H](C)O2)[C@H](C)[C@@H](O[C@@H]2O[C@H](C)C[C@H](N(C)C)[C@H]2O)[C@](C)(OC)C[C@@H](C)C(=O)[C@H](C)[C@@H](O)[C@]1(C)O as the molecule, how does the MIC [1] read?
**A.** 2 µg/mL (≈ 2.03 µM)

**Q.** And the MIC [2]?
**A.** 1 µg/mL (≈ 1.02 µM)

**Q.** What about the MIC [3] of the same molecule?
**A.** 0.25 µg/mL (≈ 0.254 µM)

**Q.** What about the MIC [4] of the same molecule?
**A.** 0.03 µg/mL (≈ 0.0305 µM)

**Q.** CC[C@H]1OC(=O)[C@H](C)[C@@H](O[C@H]2C[C@@](C)(OC)[C@@H](OC(=O)NCCc3ccccc3Cl)[C@H](C)O2)[C@H](C)[C@@H](O[C@@H]2O[C@H](C)C[C@H](N(C)C)[C@H]2O)[C@](C)(OC)C[C@@H](C)C(=O)[C@H](C)[C@@H](O)[C@]1(C)O was tested. Which MIC [1] did it give?
**A.** 128 µg/mL (≈ 138 µM)

**Q.** What about the MIC [2] of the same molecule?
**A.** 128 µg/mL (≈ 138 µM)

**Q.** And the MIC [3]?
**A.** 4 µg/mL (≈ 4.3 µM)

**Q.** And the MIC [4]?
**A.** 0.12 µg/mL (≈ 0.129 µM)

**Q.** For CC[C@H]1OC(=O)[C@H](C)[C@@H](O[C@H]2C[C@@](C)(OC)[C@@H](OC(=O)NCCc3ccc4c(c3)OCO4)[C@H](C)O2)[C@H](C)[C@@H](O[C@@H]2O[C@H](C)C[C@H](N(C)C)[C@H]2O)[C@](C)(OC)C[C@@H](C)C(=O)[C@H](C)[C@@H](O)[C@]1(C)O, which MIC [1] is on record?
**A.** 64 µg/mL (≈ 68.1 µM)

**Q.** What about the MIC [2] of the same molecule?
**A.** 32 µg/mL (≈ 34.1 µM)

**Q.** What about the MIC [3] of the same molecule?
**A.** 0.25 µg/mL (≈ 0.266 µM)

**Q.** What about the MIC [4] of the same molecule?
**A.** 0.06 µg/mL (≈ 0.0639 µM)

**Q.** Which results are given for CC[C@H]1OC(=O)[C@H](C)[C@@H](O[C@H]2C[C@@](C)(OC)[C@@H](OC(=O)NCCc3ccc(O)cc3)[C@H](C)O2)[C@H](C)[C@@H](O[C@@H]2O[C@H](C)C[C@H](N(C)C)[C@H]2O)[C@](C)(OC)C[C@@H](C)C(=O)[C@H](C)[C@@H](O)[C@]1(C)O?
**A.** MIC [1]: 64 µg/mL (≈ 70.2 µM); MIC [2]: 16 µg/mL (≈ 17.6 µM); MIC [3]: 1 µg/mL (≈ 1.1 µM); MIC [4]: 0.03 µg/mL (≈ 0.0329 µM)

**Q.** Which MIC [1] does the source give for CC[C@H]1OC(=O)[C@H](C)[C@@H](O[C@H]2C[C@@](C)(OC)[C@@H](O)[C@H](C)O2)[C@H](C)[C@@H](O[C@@H]2O[C@H](C)C[C@H](N(C)C)[C@H]2O)[C@](C)(O)C[C@@H](C)CN(C)[C@H](C)[C@@H](O)[C@]1(C)O [AZITHROMYCIN] here?
**A.** 256 µg/mL (≈ 342 µM)

**Q.** What about the MIC [2] of the same molecule?
**A.** 128 µg/mL (≈ 171 µM)

**Q.** And the MIC [3]?
**A.** 4 µg/mL (≈ 5.34 µM)

**Q.** What about the MIC [4] of the same molecule?
**A.** 0.03 µg/mL (≈ 0.0401 µM)
